# Results: US12509436B2, “Benzamide derivatives as cGAS-sting pathway agonists” (Baruch S. Blumberg Institute, priority 2018, dated 2025)
# System: HepG2/STING/ISG54Luc reporter cells
# Experiment: ISG54 luciferase reporter assay
# Assay type: cell-based
# Conditions: Homo sapiens, MinEC5X: minimum effective concentration to induce 5-fold luciferase activity vs mock-treated controls, 4 h post treatment, read-out: Concentration required for 5-fold of IFN-[…] induction
# Description: Cell lines. Human hepatoblastoma cell line HepG2 was obtained from ATCC. Establishment of HepG2-derived cell line stably expressing human STING: HepG2 cells stably expressing wild-type human STING (HepG2/STING), were established by transduction of pCX4bsr retroviral vector (Addgene) containing the corresponding STING cDNA and selection with 10 μg/ml of blasticidin. The HepG2/STING cells were then transduced by pGreenFire ISRE lentivector system (System Biosciences) to generate a reporter cell line HepG2/STING/ISG54Luc that expresses firefly luciferase under the control of an ISG54 promoter. The pGreenFire ISRE reporter lentiviral vector contains four copies of consensus interferon stimulated response element (ISRE) sequences derived from ISG54 ISRE1, which control the expression of both green fluorescent protein (GFP) and firefly luciferase in response to IRF3 activation and IFN stimulation. HepG2/STING/ISG54Luc cells were maintained in Dulbecco's modified minimal essential medium (DMEM)/F12 (Invitrogen) supplemented with 10% fetal bovine serum, 100 U/ml penicillin and 100 μg/ml streptomycin, as well as 400 μg/ml of G418 and 2 μg/ml of puromycin.
# ISG54 luciferase reporter assay: HepG2/STING/ISG54Luc reporter cells were seeded in black wall/clear bottom 96-well plates at a density of 4×10^4/well in […] of medium overnight. The test compounds were dissolved in DMSO with a stock concentration of 100 mM, and subjected to evaluation of dose-dependent effect on luciferase activity, starting from 100 μM in 2-fold dilution down to 0.78 μM. The experiments were performed in triplex wells.
# The firefly luciferase activities were determined at 4 h post treatment with test compounds by using equal volume ([…]) of Steady-Glo to the culture medium (Promega), followed by luminometry in a TopCounter (Perkin Elmer).
# Reporting the ISG54 promotor activation activity. The luciferase activities were converted to fold of induction relative to mock treated control. A dose-dependent curve of luciferase activities (fold of induction) for each test compound was generated using average value from the triplex wells. The activity of the test compounds was reported based on the Minimum Effective Concentration (MinEC5X) to induce 5-fold luciferase activity than that of the mock-treated controls.
row,SMILES,EC (5-fold induction)
1,O=C(Nc1cccc2ccccc12)c1ccccc1Br,50 to 100 µM
2,O=C(Nc1cccc2ccccc12)c1cc(F)ccc1Br,≤ 50 µM
3,Cc1c(Br)cccc1NC(=O)c1cc2c(cc1Br)OCO2,≤ 50 µM
4,Cc1cccc(NC(=O)c2cc(F)c(F)cc2Br)c1C,50 to 100 µM
5,Cc1c(F)cccc1NC(=O)c1cc2c(cc1Br)OCO2,≤ 50 µM
6,O=C(Nc1cccc2ccccc12)c1cc2c(cc1Br)OCO2,≤ 50 µM
7,Cc1cc(Cl)ccc1C(=O)Nc1cccc2ccccc12,≤ 50 µM
8,O=C(Nc1cccc(Cl)c1Cl)c1cc2c(cc1Br)OCO2,≤ 50 µM
9,O=C(Nc1cccc2ccccc12)c1ccc(Cl)cc1F,≤ 50 µM
10,Cc1cccc(NC(=O)c2cc3c(cc2Br)OCO3)c1C,≤ 50 µM
11,O=C(Nc1cccc2ccccc12)c1nccnc1Cl,≤ 50 µM
12,O=C(Nc1cccc2ccccc12)c1ccc(Cl)cc1Cl,≤ 50 µM
13,O=C(Nc1cccc2ccccc12)c1cccc(Cl)c1Cl,≤ 50 µM
14,C=C(C)c1ccccc1NC(=O)c1cc2c(cc1Br)OCO2,≤ 50 µM
15,O=C(Nc1cccc2c1CCCC2)c1cc2c(cc1Br)OCO2,≤ 50 µM
16,O=C(Nc1cccc2ccccc12)c1cc(F)c(F)cc1Br,≤ 50 µM
17,Cc1cccc(NC(=O)c2cc3c(cc2Br)OCO3)c1Br,≤ 50 µM
18,Cn1nc(C(=O)Nc2cccc3ccccc23)c2ccccc21,≤ 50 µM
19,O=C1CCN(C(=O)c2cc3c(cc2Br)OCO3)c2ccccc21,≤ 50 µM
20,O=C(Nc1cccc2ccccc12)c1ccc(Br)cc1Cl,≤ 50 µM
21,COc1ccc(C(=O)Nc2cccc3ccccc23)c(Br)c1,≤ 50 µM
22,O=C(Nc1cccc2ccccc12)c1ccc(F)cc1Br,≤ 50 µM
23,O=C(Nc1cccc2c1CCC2)c1cc2c(cc1Br)OCO2,≤ 50 µM
24,Cc1cccc(C)c1NC(=O)c1cc2c(cc1Br)OCO2,≤ 50 µM
25,O=C(Nc1cccc2c1CCC2)c1cc(F)c(F)cc1Br,≤ 50 µM
26,O=C(Nc1cccc2ccccc12)c1ccc(Cl)cc1Br,≤ 50 µM
27,O=C(Nc1cccc2c1CCCC2)c1cc(F)c(F)cc1Br,≤ 50 µM
